Experimental data taken from BigSolDB 2.1.

C=C(C)[C@@H]1CC[C@]2(CO)CC[C@]3(C)[C@H](CC[C@@H]4[C@@]5(C)CC[C@H](O)C(C)(C)[C@@H]5CC[C@]43C)[C@@H]12
solubility (mole fraction)
Conditions | 278.2 K | 288.2 K | 298.2 K | 308.2 K | 318.2 K
in acetone | 0.000689 | 0.00101 | 0.0015 | 0.00203 | 0.00243
in ethanol | 0.000842 | 0.00096 | 0.00107 | 0.00124 | 0.00135
